Test results: patent publication US11603359B2, “Benzothiadiazepine compounds and their use as bile acid modulators” (Albireo AB, priority 2019, dated 2023)

Key:
human IBAT = molecular target: T1, human IBAT (Homo sapiens, UniProt Q12908); assay: IBAT (h/m) assay, human IBAT-overexpressing cells, 3H-taurocholic acid uptake; assay type: cell-based; conditions: 0.25 μM 3H-taurocholic acid + 5 μM cold taurocholic acid, 20 minutes, read-out: hIBAT IC50
T1 construct: expressed in transfected cells; Puromycin-selected IBAT-overexpressing cells
T1 sequence (Q12908 1-348): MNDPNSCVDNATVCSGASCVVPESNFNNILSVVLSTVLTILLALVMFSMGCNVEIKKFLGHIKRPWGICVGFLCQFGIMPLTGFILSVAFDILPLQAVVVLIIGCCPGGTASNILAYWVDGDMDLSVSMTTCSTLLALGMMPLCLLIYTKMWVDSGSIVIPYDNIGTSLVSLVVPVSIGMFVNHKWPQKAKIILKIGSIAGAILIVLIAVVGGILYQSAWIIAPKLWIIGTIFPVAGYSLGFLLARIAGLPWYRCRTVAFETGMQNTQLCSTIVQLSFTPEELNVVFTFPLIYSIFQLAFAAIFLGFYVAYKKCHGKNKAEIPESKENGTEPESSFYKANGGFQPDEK
Description: 10,000 cells (Human or Mouse IBAT-overexpressing cells) were seeded in 96-wells plate (Corning CLS3809) in 200 μL MEM-alpha medium (Gibco 12571-063) supplemented with 10% FBS (Gibco 10438026) containing Puromycin (Gibco A1113803) (10 μg/mL) and incubated at 37° C. in 5% CO2 for 48 hours. After incubation, media was decanted from the wells and cells were washed two times with 300 μL of basal MEM-alpha medium (FBS-free). After decanting basal MEM-alpha medium each time, plates were tapped against paper towel to ensure maximum removal of residual media. Test inhibitor dilutions (highest test concentration being 10 μM, 3-fold serial dilution, 10 points) prepared in DMSO (Sigma D2650) were added in incubation mix (maintaining 0.2% final DMSO concentration) containing 0.25 μM 3H-taurocholic acid (ARC ART-1368) and 5 μM of cold taurocholic acid (Sigma T4009). 50 μL of incubation mix containing test inhibitors was then added to the wells (in duplicate) and the plates were incubated for 20 minutes in a CO2 incubator at 37° C. After incubation, the reaction was stopped by keeping the plates on ice water mix for 2-3 minutes and then the incubation mix was aspirated completely from the wells. The wells were washed two times with 250 μL of chilled unlabelled 1 mM taurocholic acid dissolved in HEPES (Gibco 15630080)-buffered (10 mM) HBSS (Gibco 14175079) (pH 7.4). The plates were tapped against a paper towel after every wash to ensure maximum removal of blocking buffer.
100 μL of MicroScint-20 (PerkinElmer 6013621) was added to the wells and kept overnight at room temperature before reading the plates in TopCount NXT™ Microplate Scintillation and Luminescence Counter from PerkinElmer under 3H Test protocol (set at 120 seconds reading time per well).
All test compounds were provided in powder form at room temperature. 10 mM DMSO stocks of the test compounds were prepared, aliquoted and stored at −20° C. From the 10 mM DMSO stock of the compounds, a 3-fold serial dilution in DMSO was prepared to get a total of 10 dilutions of the test compounds. 0.5 μL of this dilution in DMSO was added to 250 μL of FBS-free basal media containing 3H-taurocholic acid and cold taurocholic acid to prepare the incubation mixture.

[1] = Bidirectional permeability assay (Caco-2 cells); assay type: in vitro ADME; conditions: human, pH 7.4, Caco-2 monolayers, absorptive direction (A2B), FaSSIF donor buffer
Description: Caco-2 cells (Evotec) were seeded at a density of 70,000 cells/well in Millicell® 24-well cell culture insert plates and maintained in an incubator (37° C., 5% CO2, 95% RH) for 21 days with media change on alternate days.
Stock solutions (10 mM) of the test compounds, atenolol (low permeability marker), propranolol (high permeability marker) and digoxin (substrate for P-gp transport pathway) were prepared in dimethylsulfoxide (DMSO). An intermediate stock solution (1 mM) was prepared by diluting 10 μL of 10 mM master stock solution with 90 μL of neat DMSO. A working stock solution (10 μM) was prepared by diluting 50 μL of 1 mM with 4950 μL of FaSSIF buffer. Post addition of compounds to the FaSSIF, samples were subjected to sonication for 2 hours, and centrifuged at 4000 RPM for 30 minutes at 37° C. The 4 mL of resultant supernatant was directly used in the assay. The final DMSO concentration in the transport experiments was 1%.
On the day of assay, Caco-2 monolayers were washed twice with transport buffer (HBSS, pH 7.4) and pre-incubated for 30 min (37° C., 5% CO2, 95% RH) in an incubator. The electrical resistance of the monolayers was measured with a Millicell®—ERS system. Monolayers with trans-epithelial electrical resistance (TEER) values greater than 350 ohm·cm^2 were selected for the assay.
The assay was conducted in absorptive direction (A2B) and secretory (B2A) directions. Transport experiments were initiated by addition of transport assay buffer (FaSSIF buffer prepared in HBSS) consisting of compounds to the donor compartment (apical chamber A-B; basolateral chamber B-A) in duplicate (n=2) wells. Drug free HBSS buffer (pH 7.4) containing 1% bovine serum albumin (BSA) was introduced to the receiver (A-B-basolateral; B-A-Apical) compartments. The volumes of apical and basolateral compartments were 0.4 and 0.8 mL, respectively. After adding dosing solution, plates were incubated in an incubator for 120 minutes at 37° C. After 120 minutes, donor and receiver samples were collected and matrix matched (1:1, 30 μL study sample+30 μL blank buffer) with the opposite buffer. Dosing samples matrix matched (1:1, 30 μL study sample+30 μL blank buffer) with the opposite buffer. Samples were processed by adding acetonitrile containing internal standard (60 μL study sample+200 μL acetonitrile containing internal standard—Tolbutamide, 500 ng/mL). Samples were vortexed and centrifuged at 4000 rpm for 10 minutes. The obtained supernatant (100 μL) was diluted with 100 μL of water and transferred to fresh 96 well plates. The concentration of compounds in the samples was analyzed by liquid chromatography tandem mass spectrometry (LC-MS/MS) method using discovery grade bio-analytical method, as applicable.
The mean apparent permeability (Papp, ×10^−6 cm/sec) of the test compounds, atenolol, propranolol and digoxin were calculated as follows:
[formula] where dq/dt=rate of transport (rate of transport of compound in the receiver compartment), C0=initial concentration in the donor compartment, A=surface area of the effective filter membrane.

SMILES: CCCCC1(CCCC)CN(c2ccccc2)c2cc(SC)c(OCC(O)C(=O)O)cc2S(=O)(=O)N1 (racemic) [Example 5, 3-((3,3-dibutyl-7-(methylthio)-1,1-dioxido-5-phenyl-2,3,4,5-tetrahydro-1,2,5-benzothiadiazepin-8-yl)oxy)-2-hydroxypropanoic acid]
- IC50 (human IBAT): 5 nM
- Papp A→B at 120 min, 10 µM [1]: 1 ×10⁻⁶ cm/s

SMILES: CCCCC1(CC)CN(c2ccccc2)c2cc(N(C)C)c(OCCC(=O)O)cc2S(=O)(=O)N1 (racemic) [Example 11, 3-((3-Butyl-7-(dimethylamino)-3-ethyl-1,1-dioxido-5-phenyl-2,3,4,5-tetrahydro-1,2,5-benzothiadiazepin-8-yl)oxy)propanoic acid]
- IC50 (human IBAT): 3 nM
- Papp A→B at 120 min, 10 µM [1]: 13.1 ×10⁻⁶ cm/s

SMILES: CCCCC1(CC)CN(c2ccccc2)c2cc(SC)c(OCCC(=O)O)cc2S(=O)(=O)N1 (single isomer, unassigned) [Example 4, 3-((3-butyl-3-ethyl-7-(methylthio)-1,1-dioxido-5-phenyl-2,3,4,5-tetrahydro-1,2,5-benzothiadiazepin-8-yl)oxy)propanoic acid]
- IC50 (human IBAT): 2 nM
- Papp A→B at 120 min, 10 µM [1]: 7.6 ×10⁻⁶ cm/s

SMILES: CCCCC1(CCCC)CN(c2ccccc2)c2cc(SC)c(OCC(O)C(=O)O)cc2S(=O)(=O)N1 (single isomer, unassigned) [Example 7, 3-((3,3-dibutyl-7-(methylthio)-1,1-dioxido-5-phenyl-2,3,4,5-tetrahydro-1,2,5-benzothiadiazepin-8-yl)oxy)-2-hydroxypropanoic acid]
- IC50 (human IBAT): 2 nM
- Papp A→B at 120 min, 10 µM [1]: 0.4 ×10⁻⁶ cm/s

SMILES: CCCCC1(CC)CN(c2ccccc2)c2cc(N(C)C)c(OCCC(=O)O)cc2S(=O)(=O)N1 (single isomer, unassigned) [Example 12, 3-((3-butyl-7-(dimethylamino)-3-ethyl-1,1-dioxido-5-phenyl-2,3,4,5-tetrahydro-1,2,5-benzothiadiazepin-8-yl)oxy)propanoic acid]
- IC50 (human IBAT): 3 nM
- Papp A→B at 120 min, 10 µM [1]: 14.2 ×10⁻⁶ cm/s

SMILES: CCCCC1(CCCC)CN(c2ccccc2)c2cc(SC)c(OCCC(=O)O)cc2S(=O)(=O)N1 [Example 1, 3-((3,3-Dibutyl-7-(methylthio)-1,1-dioxido-5-phenyl-2,3,4,5-tetrahydro-1,2,5-benzothiadiazepin-8-yl)oxy)propanoic acid]
- IC50 (human IBAT): 7 nM
- Papp A→B at 120 min, 10 µM [1]: 9.2 ×10⁻⁶ cm/s

SMILES: CCCCC1(CCCC)CN(c2ccccc2)c2cc(SC)c(OC(C)CC(=O)O)cc2S(=O)(=O)N1 (stereo not drawn) [Example 8, 3-((3,3-Dibutyl-7-(methylthio)-1,1-dioxido-5-phenyl-2,3,4,5-tetrahydro-1,2,5-benzothiadiazepin-8-yl)oxy)butanoic acid]
- IC50 (human IBAT): 12 nM
- Papp A→B at 120 min, 10 µM [1]: 9.5 ×10⁻⁶ cm/s

SMILES: CCCCC1(CCCC)CN(c2ccccc2)c2cc(Cl)c(OCCC(=O)O)cc2S(=O)(=O)N1 [Example 9, 3-((3,3-dibutyl-7-chloro-1,1-dioxido-5-phenyl-2,3,4,5-tetrahydro-1,2,5-benzothiadiazepin-8-yl)oxy)propanoic acid]
- IC50 (human IBAT): 21 nM
- Papp A→B at 120 min, 10 µM [1]: 10 ×10⁻⁶ cm/s

SMILES: CCCCC1(CCCC)CN(c2ccc(O)cc2)c2cc(SC)c(OCCC(=O)O)cc2S(=O)(=O)N1 [Example 10, 3-((3,3-dibutyl-5-(4-hydroxyphenyl)-7-(methylthio)-1,1-dioxido-2,3,4,5-tetrahydro-1,2,5-benzothiadiazepin-8-yl)oxy)propanoic acid]
- IC50 (human IBAT): 2 nM
- Papp A→B at 120 min, 10 µM [1]: 2.1 ×10⁻⁶ cm/s
